The record followed here is article PMC6548519 (Nature chemical biology, 2019).

One test has as its target T1, FAAH-4 (Caenorhabditis elegans, UniProt Q9U217).
T1 sequence (Q9U217 1-647): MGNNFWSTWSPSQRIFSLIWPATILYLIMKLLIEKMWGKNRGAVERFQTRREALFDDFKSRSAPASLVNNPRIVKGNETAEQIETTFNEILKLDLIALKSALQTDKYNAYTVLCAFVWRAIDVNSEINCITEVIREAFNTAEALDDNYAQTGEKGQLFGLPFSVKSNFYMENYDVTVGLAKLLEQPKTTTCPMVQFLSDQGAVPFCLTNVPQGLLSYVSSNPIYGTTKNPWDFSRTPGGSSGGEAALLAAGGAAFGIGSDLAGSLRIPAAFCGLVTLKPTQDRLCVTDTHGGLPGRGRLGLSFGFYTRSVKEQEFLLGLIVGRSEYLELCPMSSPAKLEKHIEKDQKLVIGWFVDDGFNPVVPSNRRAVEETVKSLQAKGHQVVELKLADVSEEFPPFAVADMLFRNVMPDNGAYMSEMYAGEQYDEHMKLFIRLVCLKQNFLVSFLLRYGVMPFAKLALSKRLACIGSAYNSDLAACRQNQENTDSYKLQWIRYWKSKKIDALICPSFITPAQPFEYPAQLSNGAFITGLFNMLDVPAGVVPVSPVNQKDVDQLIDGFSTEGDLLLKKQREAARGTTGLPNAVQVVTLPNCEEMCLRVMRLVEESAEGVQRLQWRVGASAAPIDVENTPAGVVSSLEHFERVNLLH
Format: biochemical.

A further test addresses T2, FAAH-1 (Caenorhabditis elegans, UniProt Q17449).
T2 sequence (Q17449 15-572): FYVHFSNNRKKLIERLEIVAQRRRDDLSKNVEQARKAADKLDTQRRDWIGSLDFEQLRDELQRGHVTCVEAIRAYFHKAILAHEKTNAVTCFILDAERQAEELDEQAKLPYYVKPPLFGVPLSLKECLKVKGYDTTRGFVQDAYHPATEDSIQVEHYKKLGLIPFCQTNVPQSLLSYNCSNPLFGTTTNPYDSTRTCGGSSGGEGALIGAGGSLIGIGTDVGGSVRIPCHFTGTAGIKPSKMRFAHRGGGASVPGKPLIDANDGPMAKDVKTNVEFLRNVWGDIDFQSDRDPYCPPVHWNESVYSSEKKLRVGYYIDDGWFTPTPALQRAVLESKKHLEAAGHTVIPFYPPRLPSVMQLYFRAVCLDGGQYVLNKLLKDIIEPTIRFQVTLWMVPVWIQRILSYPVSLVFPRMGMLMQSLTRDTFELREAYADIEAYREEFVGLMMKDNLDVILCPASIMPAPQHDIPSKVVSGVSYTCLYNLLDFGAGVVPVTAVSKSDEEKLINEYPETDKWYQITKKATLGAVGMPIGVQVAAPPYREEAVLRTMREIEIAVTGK
Nature of the test: MS-based competitive ABPP of worms treated in vivo. Format: cell-based.

As for `O=C(Oc1ccc([N+](=O)[O-])cc1)N1CCC(C(O)(c2ccc3c(c2)OCO3)c2ccc3c(c2)OCO3)CC1` [compound 1, JZL184], 11 µM corresponded to half-maximal inhibition at FAAH-4 (IC50).

On to `NC(=O)c1cccc(-c2cccc(OC(=O)NC3CCCCC3)c2)c1` [compound 6, URB597], for which the “MS-based competitive ABPP of worms treated in vivo (50 μM)” value on FAAH-1 was “URB597 also strongly engaged C. elegans FAAH-1 in vivo”.
